Common to all, as to type: functional
Test [1] concerns Plutella xylostella. The test can be described thus: Insecticidal activity against Plutella xylostella (diamondback moth) fed on artificial diet containing compound assessed as mortality at 500 ug/ml after 96 hr.
The test system of test [2] is Helicoverpa armigera. Description: Insecticidal activity against Helicoverpa armigera fed on artificial diet containing compound assessed as mortality at 62.5 ug/ml after 96 hr.
Test [3] relates to Helicoverpa armigera. Description: Insecticidal activity against Helicoverpa armigera fed on artificial diet containing compound assessed as mortality at 31.25 ug/ml after 96 hr.
For test [4], the system named is Plutella xylostella. Description: Insecticidal activity against Plutella xylostella (diamondback moth) fed on artificial diet containing compound assessed as mortality at 250 ug/ml after 96 hr.
For test [5], the system named is Plutella xylostella. Description: Insecticidal activity against Plutella xylostella (diamondback moth) fed on artificial diet containing compound assessed as mortality at 1000 ug/ml after 96 hr.
The test system of test [6] is Helicoverpa armigera. Description: Insecticidal activity against Helicoverpa armigera fed on artificial diet containing compound assessed as mortality at 500 ug/ml after 96 hr.
In test [7] the test system is Helicoverpa armigera. The test can be described thus: Insecticidal activity against Helicoverpa armigera fed on artificial diet containing compound assessed as mortality at 1000 ug/ml after 96 hr.
The test system of test [8] is Plutella xylostella. The test can be described thus: Insecticidal activity against Plutella xylostella (diamondback moth) fed on artificial diet containing compound assessed as mortality at 62.5 ug/ml after 96 hr.
Test [9] deals with Plutella xylostella. The test can be described thus: Insecticidal activity against Plutella xylostella (diamondback moth) fed on artificial diet containing compound assessed as mortality at 125 ug/ml after 96 hr.
The subject of test [10] is Helicoverpa armigera. Description: Insecticidal activity against Helicoverpa armigera fed on artificial diet containing compound assessed as mortality at 125 ug/ml after 96 hr.
Test [11] relates to Helicoverpa armigera. The test can be described thus: Insecticidal activity against Helicoverpa armigera fed on artificial diet containing compound assessed as mortality at 250 ug/ml after 96 hr.
Test [12] concerns Plutella xylostella. The test can be described thus: Insecticidal activity against Plutella xylostella (diamondback moth) fed on artificial diet containing compound assessed as mortality at 31.25 ug/ml after 96 hr.

As to `Cc1cc(Cl)ccc1NC(=O)c1ccccc1OCc1ccc(Cl)nc1`, the mortality at 500 µg/mL in the test with Plutella xylostella [1] and in the test with Helicoverpa armigera [6] was 41% each time. For the same compound, the mortality at 62.5 µg/mL in the test with Helicoverpa armigera [2] and with Plutella xylostella [8] was 0% throughout. Also, the mortality at 31.25 µg/mL in the test with Helicoverpa armigera [3] and in the test with Plutella xylostella [12] was 0% throughout. Further, the mortality at 250 µg/mL in the test with Plutella xylostella [4] and in the test on Helicoverpa armigera [11] was 41% throughout. Moreover, the mortality at 1000 µg/mL in the test with Plutella xylostella [5] and in the test with Helicoverpa armigera [7] was 100% each time. In addition, the mortality (in general, the share of the test organisms that died) at 125 µg/mL in the test with Plutella xylostella [9] was 41%; with Helicoverpa armigera [10], 0%.

For `CC(C)c1ccc(NC(=O)c2ccccc2OCc2ccc(Cl)nc2)cc1`, the figures for the mortality at 500 µg/mL in the test on Plutella xylostella [1] and in the test on Helicoverpa armigera [6] were 100% and 81%, respectively. Moreover, the mortality at 62.5 µg/mL in the test on Helicoverpa armigera [2] and in the test with Plutella xylostella [8] was 41% throughout. Also, the figures for the mortality at 31.25 µg/mL in the test with Helicoverpa armigera [3] and in the test on Plutella xylostella [12] were 41% and 0%, respectively. The mortality at 250 µg/mL was determined as 100% in the test on Plutella xylostella [4] and 61% in the test on Helicoverpa armigera [11]. In addition, the mortality at 1000 µg/mL with Plutella xylostella [5] and in the test with Helicoverpa armigera [7] was 100% each time. The figures for the mortality at 125 µg/mL with Plutella xylostella [9] and with Helicoverpa armigera [10] were 41% and 61%, respectively.

Consider `O=C(NC1CCCCC1)c1ccccc1OCc1ccc(Cl)nc1`, for which the mortality at 500 µg/mL in the test with Plutella xylostella [1] and with Helicoverpa armigera [6] was 0% in each case. The mortality at 62.5 µg/mL in the test on Helicoverpa armigera [2] and in the test on Plutella xylostella [8] was 0% throughout. Also, the mortality at 31.25 µg/mL in the test on Helicoverpa armigera [3] and in the test with Plutella xylostella [12] was 0% each time. Further, the mortality at 250 µg/mL with Plutella xylostella [4] and with Helicoverpa armigera [11] was 0% in each case. Further, the mortality at 1000 µg/mL is 41% in the test on Plutella xylostella [5] and 0% in the test on Helicoverpa armigera [7]. Besides, the mortality at 125 µg/mL in the test on Plutella xylostella [9] and in the test with Helicoverpa armigera [10] was 0% each time.

For `N#CCN(C(=O)c1ccccc1OCc1ccc(Cl)nc1)c1ccccc1`, the figures for the mortality at 500 µg/mL with Plutella xylostella [1] and with Helicoverpa armigera [6] were 0% and 81%, respectively. Further, the mortality at 62.5 µg/mL in the test on Helicoverpa armigera [2] and in the test on Plutella xylostella [8] was 0% each time. The mortality at 31.25 µg/mL in the test with Helicoverpa armigera [3] and in the test on Plutella xylostella [12] was 0% in each case. For the same compound, the mortality at 250 µg/mL in the test on Plutella xylostella [4] turned out to be 0%; in the test on Helicoverpa armigera [11], 41%. In addition, the values for the mortality at 1000 µg/mL with Plutella xylostella [5] and with Helicoverpa armigera [7] were 0% and 100%, respectively. Moreover, the mortality at 125 µg/mL in the test on Plutella xylostella [9] stood at 0%; in the test on Helicoverpa armigera [10], 41%.

The record behind these values is ChEMBL document CHEMBL3045290, “Novel salicylamide derivatives incorporating neonicotinoid pharmacophore: design, synthesis, characterization, and biological evaluation” (2013).
